Measurements as given in patent publication US10213476B2, “Compstatin analogs with improved potency and pharmacokinetic properties” (The Trustees of the University of Pennsylvania, priority 2014, dated 2019).
Where two headings read alike, the source gives them in different places.

How the values were obtained:
[1] = compared with parent peptide
[2] = molecular target: human serum albumin (HSA) (Homo sapiens, UniProt P02768); test: SPR competition between immobilized ABM2-Cp20 and soluble ibuprofen for HSA; assay type: binding; conditions: concluded from ibuprofen (site II ligand) competition
Chain of human serum albumin (HSA) (P02768 25-609): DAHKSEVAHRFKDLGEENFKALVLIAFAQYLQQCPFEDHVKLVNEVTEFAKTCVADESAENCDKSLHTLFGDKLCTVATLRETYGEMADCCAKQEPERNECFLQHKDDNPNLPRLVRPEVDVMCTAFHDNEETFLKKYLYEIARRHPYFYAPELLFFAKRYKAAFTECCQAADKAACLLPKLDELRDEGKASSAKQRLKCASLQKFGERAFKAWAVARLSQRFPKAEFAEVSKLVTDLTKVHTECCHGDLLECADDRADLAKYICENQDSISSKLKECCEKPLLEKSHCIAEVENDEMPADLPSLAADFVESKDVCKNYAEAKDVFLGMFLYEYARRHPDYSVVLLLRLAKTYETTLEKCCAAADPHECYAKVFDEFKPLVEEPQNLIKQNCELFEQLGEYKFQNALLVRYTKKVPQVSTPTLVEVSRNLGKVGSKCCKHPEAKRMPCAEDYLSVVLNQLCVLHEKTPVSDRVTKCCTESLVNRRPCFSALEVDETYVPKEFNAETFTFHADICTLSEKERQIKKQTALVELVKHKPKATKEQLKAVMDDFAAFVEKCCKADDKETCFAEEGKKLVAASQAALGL
Description: Data were recorded at 25° C. using PBS-T (10 mM sodium phosphate, 150 mM NaCl, 0.005% Tween-20, pH 7.4) as running buffer, and untreated flow cells were used as a reference surface.

[3] = molecular target: baboon albumin; test: SPR of albumin binding to immobilized ABM2-Cp20 (baboon albumin); conditions: baboon albumin 6.3-100 μM over immobilized biotinylated ABM2-Cp20; read-out: Apparent binding affinity
Description: Streptavidin was immobilized on all flow cells of CM5 sensor chips (GE Healthcare) using standard amine coupling under 30° C. […] Sets of five increasing concentrations (6.3-100 μM) of albumin from different species (human, mouse, bovine, rabbit and baboon) were injected over the chip surface (FIG. 2). Data were recorded at 25° C. using PBS-T (10 mM sodium phosphate, 150 mM NaCl, 0.005% Tween-20, pH 7.4) as running buffer. Data were processed in Scrubber (v2.0c; Bio-Logic Software, Campbell, Australia); the signals from an untreated flow cell and buffer blank injections were subtracted. Apparent binding affinities (KD app) were calculated by fitting the steady state responses to a single-binding-site model.

[4] = Plasma protein binding by rapid equilibrium dialysis (RED); assay type: in vitro ADME; conditions: human, 37° C.; for fraction unbound at 24 h, 5 μM: peptide 5 μM; for fraction unbound at 24 h, 10 μM: peptide 10 μM
Description: A rapid equilibrium dialysis (RED) device with inserts (MWCO 8 K) was used (Thermo Scientific). C3-depleted serum (product no. A314) was purchased from Complement Technology, Tyler, Tex. Purified C3 (Complement Technology, A113c) was added to C3-depleted serum at a defined, physiologically relevant concentration (5 μM) to maintain the sample matrix and inhibitor-target ratio in comparative experiments (referred to as C3-positive serum).
Equilibrium dialysis using RED device was performed to determine the plasma protein binding. The inserts were soaked in water for 10 min before discarding the water (twice), and then used immediately (Waters et al., 2008, J. Pharm. Sci. 97, 4586). A mixture of 90 μL C3-depleted or C3-positive serum and 10 μL compstatin sample (5 or 10 μM) in PBS buffer (10% DMSO, 0.5% Tween 20, 0.2% sodium azide) was placed in the plasma chamber, and 300 μL PBS buffer (1% DMSO and 0.05% Tween 20) was placed in the buffer chamber. The final DMSO concentration of the dialysis system was 1%. The plate was covered with a sealing tape and incubated at 37° C. on an orbital shaker (200 rpm) for 24 h. Each sample was analyzed at least twice.
A 50-μL aliquot of each post-dialysis sample from both the plasma and buffer chambers was pipetted into separate LoBind tubes (Eppendorf). The samples from plasma chambers were diluted with 50 μL PBS, while samples from buffer chambers were diluted with C3-depleted, or C3 positive serum (matrix match). All samples were diluted to 100 μL using 4% H3PO4 to dissociate the peptides. […] The eluent was injected into the UPLC-HDMS system consisting of an online ACQUITY UPLC (Waters BEH C18 column, 130 Å, 1.7 μm, 2.1 mm×150 mm) coupled to a SYNAPT G2-S HDMS instrument equipped with an ESI source (capillary voltage was set to 3.2 kV, the cone voltage to 30 V and the source temperature to 120° C.). MS peak areas of the peptide were determined by integration for the quantification (Qu et al., 2013, supra). The unbound fraction of the peptide in plasma (% free) was calculated from the ratio of the buffer side response to the plasma side response. The bound fraction of the compound was calculated as follows: % bound=100−% free.

[5] = tested on: complement activation initiated via the classical pathway; test: ELISA of immune complex-induced complement activation (classical pathway) in human plasma; assay type: biochemical
Description: Each peptide was dissolved in water, and its concentration was determined by Nanodrop using the absorbance at 280 nm. […] The percent inhibition was plotted against the peptide concentration, and the resulting data set was fitted to the logistic dose-response function to obtain IC50 values (FIG. 4).

[6] = molecular target: T1, C3b (Homo sapiens, UniProt P01024); test: SPR single-cycle kinetic analysis of compstatin analogs on immobilized C3b; conditions: C3b surface 3000-5000 RU, 25° C., PBS-T, 1:1 binding model
T1 construct: a two-chain molecule consisting of a β chain (residues 1 to about 645) and an α-chain (residues 650-1,641)
T1 sequence (P01024 23-667 limits assumed): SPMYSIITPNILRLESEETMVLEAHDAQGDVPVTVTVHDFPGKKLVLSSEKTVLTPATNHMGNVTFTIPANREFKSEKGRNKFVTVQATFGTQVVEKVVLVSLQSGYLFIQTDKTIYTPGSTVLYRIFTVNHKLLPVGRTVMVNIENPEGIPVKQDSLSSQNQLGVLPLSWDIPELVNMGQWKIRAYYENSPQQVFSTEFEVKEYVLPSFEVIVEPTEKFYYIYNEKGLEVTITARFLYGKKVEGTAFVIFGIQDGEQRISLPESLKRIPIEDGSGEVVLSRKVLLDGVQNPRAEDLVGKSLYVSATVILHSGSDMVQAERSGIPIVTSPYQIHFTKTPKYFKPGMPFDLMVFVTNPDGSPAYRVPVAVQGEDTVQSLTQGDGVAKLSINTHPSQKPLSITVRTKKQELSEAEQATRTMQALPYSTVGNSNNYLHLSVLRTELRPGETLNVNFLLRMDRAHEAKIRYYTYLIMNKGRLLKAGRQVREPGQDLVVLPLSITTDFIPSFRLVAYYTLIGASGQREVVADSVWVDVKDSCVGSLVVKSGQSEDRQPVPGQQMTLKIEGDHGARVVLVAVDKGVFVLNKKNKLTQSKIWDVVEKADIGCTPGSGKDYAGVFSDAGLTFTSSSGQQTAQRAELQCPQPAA
T1 sequence (P01024 749-1663 partner limits assumed): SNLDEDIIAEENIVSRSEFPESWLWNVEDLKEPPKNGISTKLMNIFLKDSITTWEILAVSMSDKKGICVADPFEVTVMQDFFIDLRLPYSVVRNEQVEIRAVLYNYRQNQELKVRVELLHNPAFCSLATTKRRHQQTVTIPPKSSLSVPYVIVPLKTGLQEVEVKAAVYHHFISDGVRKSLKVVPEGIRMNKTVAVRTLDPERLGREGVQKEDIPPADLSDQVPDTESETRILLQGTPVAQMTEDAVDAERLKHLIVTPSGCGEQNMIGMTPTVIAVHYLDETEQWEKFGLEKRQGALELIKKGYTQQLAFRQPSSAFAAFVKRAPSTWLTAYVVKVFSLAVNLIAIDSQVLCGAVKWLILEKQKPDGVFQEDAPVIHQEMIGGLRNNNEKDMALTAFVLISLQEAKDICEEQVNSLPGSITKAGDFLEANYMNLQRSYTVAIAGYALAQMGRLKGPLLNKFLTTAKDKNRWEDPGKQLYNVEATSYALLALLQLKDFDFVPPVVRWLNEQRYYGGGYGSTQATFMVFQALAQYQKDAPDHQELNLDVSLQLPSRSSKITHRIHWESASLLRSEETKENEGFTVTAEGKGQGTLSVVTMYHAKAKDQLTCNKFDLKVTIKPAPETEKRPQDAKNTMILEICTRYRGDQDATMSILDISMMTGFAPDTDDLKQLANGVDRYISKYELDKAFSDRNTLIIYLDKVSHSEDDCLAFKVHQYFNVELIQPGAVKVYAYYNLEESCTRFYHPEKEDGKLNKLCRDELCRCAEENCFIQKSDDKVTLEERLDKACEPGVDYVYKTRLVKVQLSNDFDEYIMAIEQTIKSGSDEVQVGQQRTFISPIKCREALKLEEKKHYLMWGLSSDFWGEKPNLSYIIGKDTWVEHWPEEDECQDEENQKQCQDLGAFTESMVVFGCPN
Description: Individual injections within a cycle were 2 min long with a 5-min dissociation between injections. After the end of the last injection, a 40-min dissociation time was allowed. […] Each assay was performed at least twice.

[7] = NHP; cited from earlier work
[8] = molecular target: C3 (Homo sapiens, UniProt P01024); conditions: versus earlier compstatin analogs, backbone N-methylation; cited from earlier work
Chain of C3 (P01024 23-1663): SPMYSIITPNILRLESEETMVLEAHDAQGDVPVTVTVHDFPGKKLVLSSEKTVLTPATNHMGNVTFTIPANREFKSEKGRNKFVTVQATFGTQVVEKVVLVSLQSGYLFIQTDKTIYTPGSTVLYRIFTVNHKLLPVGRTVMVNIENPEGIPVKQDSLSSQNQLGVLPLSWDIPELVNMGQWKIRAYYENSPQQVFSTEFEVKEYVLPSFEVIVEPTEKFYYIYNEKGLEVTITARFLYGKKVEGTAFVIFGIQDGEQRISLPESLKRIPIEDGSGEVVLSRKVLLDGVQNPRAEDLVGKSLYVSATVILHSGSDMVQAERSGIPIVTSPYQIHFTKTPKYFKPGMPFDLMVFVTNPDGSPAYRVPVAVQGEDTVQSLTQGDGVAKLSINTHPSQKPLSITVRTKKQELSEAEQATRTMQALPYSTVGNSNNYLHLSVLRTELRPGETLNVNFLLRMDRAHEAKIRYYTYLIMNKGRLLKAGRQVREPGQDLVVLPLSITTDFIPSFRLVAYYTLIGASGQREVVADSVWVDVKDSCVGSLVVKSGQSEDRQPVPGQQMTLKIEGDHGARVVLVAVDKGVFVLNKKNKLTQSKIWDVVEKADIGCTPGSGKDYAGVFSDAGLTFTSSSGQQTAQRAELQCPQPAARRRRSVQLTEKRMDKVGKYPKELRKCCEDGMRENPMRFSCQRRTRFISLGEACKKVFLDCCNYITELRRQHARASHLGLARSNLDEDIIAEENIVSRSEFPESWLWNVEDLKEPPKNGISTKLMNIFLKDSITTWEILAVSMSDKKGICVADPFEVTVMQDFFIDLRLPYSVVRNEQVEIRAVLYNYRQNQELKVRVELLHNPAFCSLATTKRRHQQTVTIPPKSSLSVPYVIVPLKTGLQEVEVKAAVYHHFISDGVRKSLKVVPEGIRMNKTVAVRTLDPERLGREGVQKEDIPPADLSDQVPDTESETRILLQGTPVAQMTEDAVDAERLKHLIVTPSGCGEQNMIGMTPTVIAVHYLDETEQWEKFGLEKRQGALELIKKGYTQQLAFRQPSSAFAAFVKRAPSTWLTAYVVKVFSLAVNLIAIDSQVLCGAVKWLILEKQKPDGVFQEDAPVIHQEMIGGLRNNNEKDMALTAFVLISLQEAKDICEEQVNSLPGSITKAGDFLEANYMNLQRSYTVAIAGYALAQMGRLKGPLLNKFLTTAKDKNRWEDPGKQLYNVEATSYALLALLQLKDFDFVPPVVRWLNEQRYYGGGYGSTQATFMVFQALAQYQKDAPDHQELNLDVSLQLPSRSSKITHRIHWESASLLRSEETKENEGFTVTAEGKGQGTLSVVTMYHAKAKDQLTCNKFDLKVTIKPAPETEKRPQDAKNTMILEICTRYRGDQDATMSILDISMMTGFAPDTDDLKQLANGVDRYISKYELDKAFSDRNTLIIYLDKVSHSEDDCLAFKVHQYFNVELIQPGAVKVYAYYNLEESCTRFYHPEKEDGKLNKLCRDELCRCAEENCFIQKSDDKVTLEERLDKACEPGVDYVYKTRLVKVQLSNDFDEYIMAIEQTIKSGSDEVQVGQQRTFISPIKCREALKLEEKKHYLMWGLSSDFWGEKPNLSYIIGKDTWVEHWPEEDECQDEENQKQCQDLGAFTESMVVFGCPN

[9] = molecular target: human serum albumin (Homo sapiens, UniProt P02768); conditions: cited from earlier work
Chain of human serum albumin (P02768 25-609): as the sequence (P02768 25-609) above

[10] = in human; cited from earlier work
[11] = C3-depleted serum with 5 μM purified C3, 24 h, read-out: C3-positive serum % bound
[12] = C3-depleted serum, 24 h, read-out: C3-depleted serum % bound (converted)
[13] = C3-depleted serum with 5 μM purified C3, 24 h, read-out: C3-positive serum % bound (converted)

kd [6]	Structure (SMILES)	fraction unbound at 24 h, 5 μM [4, 11]	fraction unbound at 24 h, 5 μM [4, 12]	fraction unbound at 24 h, 10 μM [4, 13]	fraction unbound at 24 h, 10 μM [4, 12]	IC50 [5] [nM]	half-life [7] [h]	also measured
	CC[C@H](C)[C@H](NC(=O)CCCCCOP(=O)(O)OC1CCC(c2ccccc2)(c2ccccc2)CC1)C(=O)N[C@H]1CSSC[C@@H](C(=O)N(C)[C@H](C(N)=O)[C@@H](C)CC)NC(=O)[C@H](CCCNC(=N)N)NC(=O)[C@H](Cc2c[nH]cn2)NC(=O)[C@H](C)NC(=O)CN(C)C(=O)[C@H](Cc2c[nH]c3ccccc23)NC(=O)[C@H](CC(=O)O)NC(=O)[C@H](CCC(N)=O)NC(=O)[C@H](Cc2cn(C)c3ccccc23)NC(=O)[C@H](C(C)C)NC1=O [ABM2-Cp20, ABM2-Ile-[Cys-Val-Trp(Me)-Gln-Asp-Trp-Sar-Ala-His-Arg-Cys]-mIle-NH2]	< 0.01	< 0.01	< 0.01	< 0.01	170 ± 110		solubility [1]: lower solubility; albumin binding site [2]: binds primarily to site II; Kd [3]: 106000 ± 3000 nM
0.5 ± 0.2 10^−3 s^−1	CC[C@H](C)[C@H](NC(=O)[C@@H](Cc1ccc(O)cc1)NC(=O)CCCCCOP(=O)(O)OC1CCC(c2ccccc2)(c2ccccc2)CC1)C(=O)N[C@H]1CSSC[C@@H](C(=O)N(C)[C@H](C(N)=O)[C@@H](C)CC)NC(=O)[C@H](CCCNC(=N)N)NC(=O)[C@H](Cc2c[nH]cn2)NC(=O)[C@H](C)NC(=O)CN(C)C(=O)[C@H](Cc2c[nH]c3ccccc23)NC(=O)[C@H](CC(=O)O)NC(=O)[C@H](CCC(N)=O)NC(=O)[C@H](Cc2cn(C)c3ccccc23)NC(=O)[C@H](C(C)C)NC1=O [ABM2-Cp40]					80 ± 30		
1.3 ± 0.2 10^−3 s^−1	CC[C@H](C)[C@H](NC(=O)[C@H](N)Cc1ccc(O)cc1)C(=O)N[C@H]1CSSC[C@@H](C(=O)N(C)[C@H](C(N)=O)[C@@H](C)CC)NC(=O)[C@H](CCCNC(=N)N)NC(=O)[C@H](Cc2c[nH]cn2)NC(=O)[C@H](C)NC(=O)CN(C)C(=O)[C@H](Cc2c[nH]c3ccccc23)NC(=O)[C@H](CC(=O)O)NC(=O)[C@H](CCC(N)=O)NC(=O)[C@H](Cc2cn(C)c3ccccc23)NC(=O)[C@H](C(C)C)NC1=O [Cp40, (D)Tyr-Ile-[Cys-Val-Trp(Me)-Gln-Asp-Trp-Sar-Ala-His-Arg-Cys]-mIle-NH2, reference compound]						12	
	O=C([O-])CN(CCN(CC(=O)[O-])CC(COP(=O)([O-])OC1CCC(c2ccccc2)(c2ccccc2)CC1)N(CC(=O)[O-])CC(=O)[O-])CC(=O)[O-].[Gd+3].[Na+].[Na+].[Na+] (centres unmarked) [MS-325, gadofosveset trisodium]							Kd [9]: 164000 nM; intravascular half-life [10]: 18.5 ± 3 h

Structure (SMILES)	kd [6]	fraction unbound at 24 h, 5 μM [4, 11]	fraction unbound at 24 h, 5 μM [4, 12]	fraction unbound at 24 h, 10 μM [4, 13]	fraction unbound at 24 h, 10 μM [4, 12]	IC50 [5] [nM]	half-life [7] [h]	also measured
CC[C@H](C)[C@H](NC(C)=O)C(=O)N[C@H]1CSSC[C@@H](C(=O)N(C)[C@H](C(N)=O)[C@@H](C)CC)NC(=O)[C@H](CCCNC(=N)N)NC(=O)[C@H](Cc2c[nH]cn2)NC(=O)[C@H](C)NC(=O)CN(C)C(=O)[C@H](Cc2c[nH]c3ccccc23)NC(=O)[C@H](CC(=O)O)NC(=O)[C@H](CCC(N)=O)NC(=O)[C@H](Cc2cn(C)c3ccccc23)NC(=O)[C@H](C(C)C)NC1=O [Cp20, Ac-Ile-[Cys-Val-Trp(Me)-Gln-Asp-Trp-Sar-Ala-His-Arg-Cys]-mIle-NH2, reference compound]	6.7 ± 2.9 10^−3 s^−1	< 0.01	0.93	0.16	0.97	260 ± 120	9	improved affinity [8]: 10 fold; kon ([6]; read-out: ka): 2.3e+06 ± 700000 M⁻¹ s⁻¹
